In PubChem BioAssay AID192 (DTP/NCI, 2004):
Toxic doses and inconclusive results are not listed.

Test system: BDF1 mice, B16 melanoma ip, median survival T/C
Experiment: NCI In Vivo Anticancer Drug Screen. Data for tumor model B16 Melanoma (intraperitoneal) in B6D2F1 (BDF1) mice
Settings: endpoint: median survival time, higher = longer survival
Procedure, shortened: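 Read-out: survival or tumor size, given as treated/control ratio. Controls received vehicle only; animals bore transplantable tumors.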

## O=C1c2ccccc2C(=O)c2c(NCCNCCO)ccc(NCCNCCO)c21
dose: 16.0 mg/kg/injection, schedule: Q01DX009 (ip), vehicle: Klucel (hydroxypropylcellulose) (HPC)
  T/C: 173 % of control
dose: 16.0 mg/kg/injection, schedule: Q01DX009 (ip), vehicle: saline with Tween-80
  T/C: 186 % of control
dose: 16.0 mg/kg/injection, schedule: Q01DX009 (oral), vehicle: acid diluted with saline
  T/C: 109 % of control
dose: 16.0 mg/kg/injection, schedule: Q01DX009 (oral), vehicle: saline
  T/C: 101 % of control
dose: 16.0 mg/kg/injection, schedule: Q01DX009 (sc), vehicle: acid diluted with saline
  T/C: 156 % of control
dose: 16.0 mg/kg/injection, schedule: Q02DX009 (ip), vehicle: saline
  T/C: 180 % of control
dose: 16.0 mg/kg/injection, schedule: Q03HX008 (ip), vehicle: acid diluted with saline
  T/C: 209 % of control
dose: 16.0 mg/kg/injection, schedule: Q03HX008 (ip), vehicle: saline
  T/C: 117 % of control
dose: 16.0 mg/kg/injection, schedule: Q03HX016 (ip), vehicle: acid diluted with saline
  T/C: 98 % of control
dose: 16.0 mg/kg/injection, schedule: Q04DX003 (ip), vehicle: acid diluted with saline
  T/C: 204 % of control
dose: 16.0 mg/kg/injection, schedule: Q08DX002 (ip), vehicle: acid diluted with saline
  T/C: 173 % of control
dose: 16.0 mg/kg/injection, schedule: Q08DX002 (ip), vehicle: saline
  T/C: 112 % of control
dose: 18.75 mg/kg/injection, schedule: Q01DX001 (ip), vehicle: Klucel (hydroxypropylcellulose) (HPC)
  T/C: 111 % of control
dose: 32.0 mg/kg/injection, schedule: Q01DX001 (ip), vehicle: acid diluted with saline
  T/C: 157 % of control
dose: 32.0 mg/kg/injection, schedule: Q01DX001 (ip), vehicle: saline
  T/C: 157 % of control
dose: 32.0 mg/kg/injection, schedule: Q01DX001 (oral), vehicle: saline
  T/C: 106 % of control
dose: 32.0 mg/kg/injection, schedule: Q01DX001 (sc), vehicle: acid diluted with saline
  T/C: 100 % of control
dose: 32.0 mg/kg/injection, schedule: Q01DX005 (ip), vehicle: saline
  T/C: 181 % of control
dose: 32.0 mg/kg/injection, schedule: Q01DX005 (iv), vehicle: saline
  T/C: 119 % of control
dose: 32.0 mg/kg/injection, schedule: Q01DX009 (oral), vehicle: acid diluted with saline
  T/C: 113 % of control
dose: 32.0 mg/kg/injection, schedule: Q01DX009 (oral), vehicle: saline
  T/C: 112 % of control
dose: 32.0 mg/kg/injection, schedule: Q01DX009 (sc), vehicle: acid diluted with saline
  T/C: 114 % of control
dose: 32.0 mg/kg/injection, schedule: Q01DX009 (sc), vehicle: saline
  T/C: 100 % of control
dose: 32.0 mg/kg/injection, schedule: Q02DX009 (ip), vehicle: saline
  T/C: 196 % of control
dose: 32.0 mg/kg/injection, schedule: Q04DX003 (ip), vehicle: saline
  T/C: 153 % of control
dose: 32.0 mg/kg/injection, schedule: Q08DX002 (ip), vehicle: acid diluted with saline
  T/C: 196 % of control
dose: 50.0 mg/kg/injection, schedule: Q01DX001 (ip), vehicle: water
  T/C: 151 % of control
dose: 64.0 mg/kg/injection, schedule: Q01DX001 (ip), vehicle: acid diluted with saline
  T/C: 154 % of control
dose: 64.0 mg/kg/injection, schedule: Q01DX001 (ip), vehicle: saline
  T/C: 151 % of control
dose: 64.0 mg/kg/injection, schedule: Q01DX001 (oral), vehicle: acid diluted with saline
  T/C: 109 % of control
dose: 64.0 mg/kg/injection, schedule: Q01DX001 (oral), vehicle: saline
  T/C: 116 % of control
dose: 64.0 mg/kg/injection, schedule: Q01DX001 (sc), vehicle: acid diluted with saline
  T/C: 114 % of control
dose: 64.0 mg/kg/injection, schedule: Q01DX009 (oral), vehicle: acid diluted with saline
  T/C: 100 % of control
dose: 64.0 mg/kg/injection, schedule: Q01DX009 (oral), vehicle: saline
  T/C: 112 % of control
dose: 64.0 mg/kg/injection, schedule: Q02DX009 (ip), vehicle: saline
  T/C: 89 % of control
dose: 64.0 mg/kg/injection, schedule: Q04DX003 (ip), vehicle: saline
  T/C: 213 % of control
dose: 64.0 mg/kg/injection, schedule: Q08DX002 (ip), vehicle: acid diluted with saline
  T/C: 178 % of control
dose: 64.0 mg/kg/injection, schedule: Q08DX002 (ip), vehicle: saline
  T/C: 179 % of control
dose: 128.0 mg/kg/injection, schedule: Q01DX001 (oral), vehicle: acid diluted with saline
  T/C: 105 % of control
dose: 128.0 mg/kg/injection, schedule: Q01DX001 (oral), vehicle: saline
  T/C: 106 % of control
dose: 128.0 mg/kg/injection, schedule: Q01DX009 (oral), vehicle: acid diluted with saline
  T/C: 115 % of control
dose: 128.0 mg/kg/injection, schedule: Q01DX009 (oral), vehicle: saline
  T/C: 112 % of control
dose: 128.0 mg/kg/injection, schedule: Q08DX002 (ip), vehicle: saline
  T/C: 106 % of control
dose: 256.0 mg/kg/injection, schedule: Q01DX001 (oral), vehicle: acid diluted with saline
  T/C: 96 % of control
dose: 256.0 mg/kg/injection, schedule: Q01DX001 (oral), vehicle: saline
  T/C: 116 % of control
dose: 512.0 mg/kg/injection, schedule: Q01DX001 (oral), vehicle: saline
  T/C: 97 % of control
